Experimental data reported in ChEMBL document CHEMBL4665676, “Matrix Metalloproteinases as New Targets in Alzheimer's Disease: Opportunities and Challenges” (J Med Chem, 2020).
Peptide text beside a SMILES is read from it.

Key:
[1] = target: T1, Matrix metalloproteinase-14 (Homo sapiens, UniProt P50281); assay: Inhibition of MT1-MMP catalytic domain (unknown origin) expressed in Escherichia coli using 7-methoxycoumarin-4-yl)acetyl-Pro-Leu-Gly-Leu-(3-[2,4-dinitrophenyl]-L-2,3-diaminopropionyl)-Ala-Arg-NH2 as substrate incubated for 30 mins by fluorescence method
[2] = target: Macrophage metalloelastase (Homo sapiens, UniProt P39900); assay: Inhibition of recombinant human MMP12 using Mca-Pro-Leu-Gly-Leu-Dpa-Ala-Arg-NH2 as substrate by […] method
[3] = target: T2, 72 kDa type IV collagenase (Homo sapiens, UniProt P08253); assay: Inhibition of human MMP2 measured at 5 mins interval for 1 hr by fluorescence method
[4] = target: T3, Matrix metalloproteinase-9 (Homo sapiens, UniProt P14780); assay: Inhibition of human MMP9 measured at 5 mins interval for 1 hr by fluorescence method
[5] = target: T2, 72 kDa type IV collagenase; assay: Inhibition of MMP2 (unknown origin) using 3163v as substrate preincubated for 15 mins followed by substrate addition and measured after 40 mins by fluorometric method
[6] = target: T1, Matrix metalloproteinase-14; assay: Inhibition of human MT1-MMP using 3163v as substrate preincubated for 15 mins followed by substrate addition and measured after 40 mins by fluorometric method
Stromelysin-1 = Stromelysin-1 (Homo sapiens, UniProt P08254); assay: Inhibition of MMP3 (unknown origin) using 3168v as substrate preincubated for 15 mins followed by substrate addition and measured after 40 mins by fluorometric method
Matrilysin = target: T4, Matrilysin (Homo sapiens, UniProt P09237); assay: Inhibition of human MMP7 using 3163v as substrate preincubated for 15 mins followed by substrate addition and measured after 40 mins by fluorometric method
T4 sequence (P09237 whole entry): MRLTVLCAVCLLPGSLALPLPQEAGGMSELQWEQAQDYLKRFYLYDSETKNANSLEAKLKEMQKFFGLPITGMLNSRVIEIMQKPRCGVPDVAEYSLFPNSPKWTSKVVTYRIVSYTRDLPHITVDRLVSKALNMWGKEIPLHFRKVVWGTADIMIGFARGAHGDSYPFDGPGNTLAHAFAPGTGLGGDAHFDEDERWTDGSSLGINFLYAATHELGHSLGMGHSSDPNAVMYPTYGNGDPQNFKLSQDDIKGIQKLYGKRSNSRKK

[7] = target: T3, Matrix metalloproteinase-9; assay: Inhibition of human MMP9 using 3163v as substrate preincubated for 15 mins followed by substrate addition and measured after 40 mins by fluorometric method

T3 sequence (P14780 whole entry): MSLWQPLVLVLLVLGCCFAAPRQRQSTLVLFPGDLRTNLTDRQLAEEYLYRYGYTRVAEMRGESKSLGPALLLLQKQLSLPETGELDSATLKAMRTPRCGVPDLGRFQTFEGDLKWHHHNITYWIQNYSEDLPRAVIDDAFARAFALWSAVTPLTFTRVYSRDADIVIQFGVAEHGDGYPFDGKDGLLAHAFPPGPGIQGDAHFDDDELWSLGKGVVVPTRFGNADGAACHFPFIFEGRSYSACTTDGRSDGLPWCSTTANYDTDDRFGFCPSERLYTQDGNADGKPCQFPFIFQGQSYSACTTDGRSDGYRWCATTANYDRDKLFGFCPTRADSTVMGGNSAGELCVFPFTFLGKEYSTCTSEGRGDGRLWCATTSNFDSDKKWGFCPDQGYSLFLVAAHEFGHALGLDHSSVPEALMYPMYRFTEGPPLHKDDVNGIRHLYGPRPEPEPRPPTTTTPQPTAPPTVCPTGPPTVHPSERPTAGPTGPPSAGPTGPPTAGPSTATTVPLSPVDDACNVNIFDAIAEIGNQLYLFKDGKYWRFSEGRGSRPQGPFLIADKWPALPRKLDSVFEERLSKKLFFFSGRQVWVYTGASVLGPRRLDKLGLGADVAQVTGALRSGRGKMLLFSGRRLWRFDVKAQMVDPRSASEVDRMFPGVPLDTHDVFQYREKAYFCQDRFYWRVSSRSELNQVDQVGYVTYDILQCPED
T2 sequence (P08253 whole entry): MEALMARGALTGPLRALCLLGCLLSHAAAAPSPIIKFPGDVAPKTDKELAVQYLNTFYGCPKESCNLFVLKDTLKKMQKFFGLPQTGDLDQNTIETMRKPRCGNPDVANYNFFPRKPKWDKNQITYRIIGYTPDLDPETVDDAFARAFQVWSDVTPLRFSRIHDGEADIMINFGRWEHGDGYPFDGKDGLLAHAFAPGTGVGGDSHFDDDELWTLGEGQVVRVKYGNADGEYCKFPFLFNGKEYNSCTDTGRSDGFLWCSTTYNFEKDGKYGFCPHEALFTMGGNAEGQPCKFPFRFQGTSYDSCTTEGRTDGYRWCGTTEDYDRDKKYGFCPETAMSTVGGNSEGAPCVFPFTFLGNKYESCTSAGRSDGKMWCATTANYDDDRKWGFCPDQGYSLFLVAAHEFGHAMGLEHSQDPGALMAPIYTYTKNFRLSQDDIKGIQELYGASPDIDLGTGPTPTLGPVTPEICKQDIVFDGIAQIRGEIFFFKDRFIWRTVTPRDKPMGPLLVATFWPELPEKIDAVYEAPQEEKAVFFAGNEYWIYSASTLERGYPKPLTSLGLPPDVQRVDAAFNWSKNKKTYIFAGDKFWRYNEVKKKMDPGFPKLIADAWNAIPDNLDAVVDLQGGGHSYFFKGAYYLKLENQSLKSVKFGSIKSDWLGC
Macrophage metalloelastase, sequence (P39900 whole entry): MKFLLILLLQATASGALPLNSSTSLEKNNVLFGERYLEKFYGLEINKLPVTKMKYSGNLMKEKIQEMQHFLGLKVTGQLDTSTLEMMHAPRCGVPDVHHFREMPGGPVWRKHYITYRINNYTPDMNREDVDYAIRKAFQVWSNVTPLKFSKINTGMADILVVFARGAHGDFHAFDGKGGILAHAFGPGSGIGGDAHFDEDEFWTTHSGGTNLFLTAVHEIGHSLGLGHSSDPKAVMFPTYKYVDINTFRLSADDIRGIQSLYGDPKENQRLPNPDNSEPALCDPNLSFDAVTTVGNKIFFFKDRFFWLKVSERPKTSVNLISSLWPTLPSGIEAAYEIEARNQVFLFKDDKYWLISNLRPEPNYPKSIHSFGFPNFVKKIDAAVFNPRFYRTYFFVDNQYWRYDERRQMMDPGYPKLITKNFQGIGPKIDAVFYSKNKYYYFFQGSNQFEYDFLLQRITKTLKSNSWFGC
Stromelysin-1, sequence (P08254 whole entry): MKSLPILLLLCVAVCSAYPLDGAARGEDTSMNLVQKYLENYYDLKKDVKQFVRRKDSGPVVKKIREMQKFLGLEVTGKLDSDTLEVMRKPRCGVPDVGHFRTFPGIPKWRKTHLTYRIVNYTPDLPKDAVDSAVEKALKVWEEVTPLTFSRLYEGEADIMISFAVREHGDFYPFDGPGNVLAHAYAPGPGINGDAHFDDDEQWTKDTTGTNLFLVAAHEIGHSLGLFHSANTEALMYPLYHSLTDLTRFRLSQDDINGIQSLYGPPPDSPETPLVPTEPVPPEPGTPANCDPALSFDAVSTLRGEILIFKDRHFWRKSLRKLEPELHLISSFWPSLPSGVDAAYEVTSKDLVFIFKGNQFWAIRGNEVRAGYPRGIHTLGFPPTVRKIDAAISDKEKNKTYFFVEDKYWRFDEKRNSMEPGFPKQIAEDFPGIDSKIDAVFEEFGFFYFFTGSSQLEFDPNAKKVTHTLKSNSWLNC

With `CCCC(C)NC(=O)c1ccc(Cl)c(Cl)c1` (centres undefined) the IC50 [1] was > 100000 nM.
For `NC(=O)[C@H](CCC(=O)O)NC(=O)c1ccc(-c2cc(-c3ccccc3)cs2)cc1`, the IC50 [2] was 2.5 nM.
With `CCCCCC(=O)N1CC(F)(F)C[C@@H]1C(=O)N(C)[C@H](C(=O)N[C@@H](CCNC(=O)c1ccccc1)C(=O)NO)[C@@H](C)CC` the IC50 [3] was 656 nM and the IC50 [4] was 310 nM.
In the case of `CC[C@H](C)[C@H](N)C(=O)N[C@@H](CO)C(=O)N[C@@H](Cc1ccc(O)cc1)C(=O)NCC(=O)N[C@@H](CC(N)=O)C(=O)N[C@@H](CC(=O)O)C(=O)N[C@@H](C)C(=O)N[C@@H](CC(C)C)C(=O)N[C@@H](CCSC)C(=O)N1CCC[C@H]1C(=O)O` (H-ISYGNDALMP-OH), the IC50 [5] is reported as 30 nM, the IC50 [6] is reported as 2000 nM and the IC50 (Stromelysin-1) is reported as > 10000 nM. The IC50 (Matrilysin) was > 10000 nM and the IC50 [7] was > 10000 nM.
